Results from ChEMBL document CHEMBL3588817, “Discovery of 4,5,6,7-Tetrahydrobenzo[1,2-d]thiazoles as Novel DNA Gyrase Inhibitors Targeting the ATP-Binding Site” (J Med Chem, 2015).
Values after ≈ are worked out from the molar mass of the structure shown.

Key:
Staphylococcus aureus [1] = test: Antibacterial activity against Staphylococcus aureus 25923 assessed as inhibition of microbial growth at 50 uM by broth microdilution method; assay type: functional; settings: read-out: GI
Enterococcus faecalis [2] = test: Antibacterial activity against Enterococcus faecalis ATCC 29212 assessed as inhibition of microbial growth by broth microdilution method; assay type: functional
Escherichia coli [3] = test: Antibacterial activity against efflux deficient Escherichia coli tolC::Tn10 lacking functional tolC gene by broth microdilution method
Enterococcus faecalis [4] = test: Antibacterial activity against Enterococcus faecalis ATCC 29212 assessed as inhibition of microbial growth at 50 uM by broth microdilution method; assay type: functional; settings: read-out: GI
DNA gyrase [5] = biological target: T1, DNA gyrase (Escherichia coli, UniProt P0AES4+P0AES6); test: Inhibition of Escherichia coli DNA gyrase using relaxed pNO1 plasmid and biotinylated oligonucelotide incubated for 30 mins by fluorescence based DNA super-coiling assay; assay type: protein-complex assay
DNA gyrase [6] = biological target: T1, DNA gyrase; test: Binding affinity to Escherichia coli DNA gyrase subunit B N-terminal 24 kDa domain by SPR assay; assay type: protein-complex assay
Escherichia coli [7] = test: Antibacterial activity against wild type Escherichia coli ATCC 25922 by broth microdilution method; assay type: functional
Pseudomonas aeruginosa [8] = test: Antibacterial activity against Pseudomonas aeruginosa ATCC 27853 assessed as inhibition of microbial growth by broth microdilution method; assay type: functional
Pseudomonas aeruginosa [9] = test: Antibacterial activity against Pseudomonas aeruginosa ATCC 27853 assessed as inhibition of microbial growth at 50 uM by broth microdilution method; assay type: functional; settings: read-out: GI
Escherichia coli [10] = test: Antibacterial activity against Escherichia coli imp4213::Tn10 by broth microdilution method; assay type: functional
Escherichia coli [11] = test: Antibacterial activity against wild type Escherichia coli ATCC 25922 assessed as inhibition of microbial growth by broth microdilution method; assay type: functional
Staphylococcus aureus [12] = test: Antibacterial activity against Staphylococcus aureus 25923 assessed as inhibition of microbial growth by broth microdilution method; assay type: functional
Escherichia coli [13] = test: Antibacterial activity against wild type Escherichia coli ATCC 25922 assessed as inhibition of microbial growth at 50 uM by broth microdilution method; assay type: functional; settings: read-out: GI
[14] = biological target: Topoisomerase IV (Staphylococcus aureus) (UniProt P0C1U9+P0C1S7); test: Inhibition of Staphylococcus aureus DNA topoisomerase 4 assessed as residual enzyme activity at 100 uM using relaxed pNO1 plasmid and biotinylated oligonucelotide incubated for 30 mins by fluorescence based DNA relaxation assay; assay type: protein-complex assay
Escherichia coli [15] = test: Inhibition of Escherichia coli DNA topoisomerase 4 assessed as residual enzyme activity at 100 uM using relaxed pNO1 plasmid and biotinylated oligonucelotide incubated for 30 mins by fluorescence based DNA relaxation assay
[16] = biological target: DNA gyrase (Staphylococcus aureus) (UniProt P0A0K8+P20831); test: Inhibition of Staphylococcus aureus DNA gyrase assessed as residual enzyme activity at 100 uM using relaxed pNO1 plasmid and biotinylated oligonucelotide incubated for 30 mins by fluorescence based DNA super-coiling assay; assay type: protein-complex assay
DNA gyrase [17] = biological target: DNA gyrase (Staphylococcus aureus, UniProt P0A0K8+P20831); test: Inhibition of Staphylococcus aureus DNA gyrase using relaxed pNO1 plasmid and biotinylated oligonucelotide incubated for 30 mins by fluorescence based DNA super-coiling assay; assay type: protein-complex assay
[18] = Inhibition of Escherichia coli DNA Gyrase ATPase activity assessed as reduction in conversion of NADH to NAD+ using linear pBR322 substrate

Sequence of DNA gyrase (Staphylococcus aureus) (P0A0K8 2-644 limits assumed): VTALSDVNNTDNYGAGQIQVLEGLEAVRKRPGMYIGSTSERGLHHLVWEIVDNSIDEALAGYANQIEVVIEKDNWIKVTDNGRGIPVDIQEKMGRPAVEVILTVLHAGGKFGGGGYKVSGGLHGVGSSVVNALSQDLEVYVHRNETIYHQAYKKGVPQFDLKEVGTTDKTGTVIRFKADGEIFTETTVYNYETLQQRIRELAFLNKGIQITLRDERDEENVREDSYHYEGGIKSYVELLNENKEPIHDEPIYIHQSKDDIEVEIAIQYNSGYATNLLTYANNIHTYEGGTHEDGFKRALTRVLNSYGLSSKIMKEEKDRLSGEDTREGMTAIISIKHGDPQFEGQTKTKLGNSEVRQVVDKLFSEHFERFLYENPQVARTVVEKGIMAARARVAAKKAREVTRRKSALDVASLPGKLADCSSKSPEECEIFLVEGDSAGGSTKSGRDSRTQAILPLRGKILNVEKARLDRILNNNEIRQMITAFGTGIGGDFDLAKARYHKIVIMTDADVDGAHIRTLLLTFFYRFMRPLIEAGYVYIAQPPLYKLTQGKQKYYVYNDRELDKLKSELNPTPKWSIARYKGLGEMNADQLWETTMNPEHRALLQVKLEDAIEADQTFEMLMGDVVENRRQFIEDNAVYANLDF
Sequence of DNA gyrase (Staphylococcus aureus) (P20831 whole entry partner): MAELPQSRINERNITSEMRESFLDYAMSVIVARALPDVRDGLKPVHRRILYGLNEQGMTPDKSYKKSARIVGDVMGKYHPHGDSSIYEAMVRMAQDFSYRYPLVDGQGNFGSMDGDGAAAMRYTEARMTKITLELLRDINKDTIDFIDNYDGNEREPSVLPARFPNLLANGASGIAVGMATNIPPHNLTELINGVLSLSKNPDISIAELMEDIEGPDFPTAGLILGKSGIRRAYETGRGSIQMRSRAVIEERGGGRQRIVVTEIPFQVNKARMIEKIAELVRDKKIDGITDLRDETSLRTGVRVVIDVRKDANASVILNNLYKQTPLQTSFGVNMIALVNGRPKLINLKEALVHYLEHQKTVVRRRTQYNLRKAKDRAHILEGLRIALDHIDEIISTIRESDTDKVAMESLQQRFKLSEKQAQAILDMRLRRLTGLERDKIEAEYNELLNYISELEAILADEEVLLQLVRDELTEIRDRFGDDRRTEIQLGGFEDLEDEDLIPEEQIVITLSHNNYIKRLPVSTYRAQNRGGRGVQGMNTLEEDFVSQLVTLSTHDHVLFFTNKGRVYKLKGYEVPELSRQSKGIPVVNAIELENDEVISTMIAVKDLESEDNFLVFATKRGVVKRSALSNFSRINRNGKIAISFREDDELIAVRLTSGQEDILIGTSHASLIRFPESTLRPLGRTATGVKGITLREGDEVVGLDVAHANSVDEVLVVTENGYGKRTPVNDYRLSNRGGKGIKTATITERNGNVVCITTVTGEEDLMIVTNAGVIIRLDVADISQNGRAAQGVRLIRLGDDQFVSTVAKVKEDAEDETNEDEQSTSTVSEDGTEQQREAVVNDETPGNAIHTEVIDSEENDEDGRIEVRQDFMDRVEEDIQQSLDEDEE
Sequence of DNA gyrase (Staphylococcus aureus, UniProt P0A0K8+P20831) (P0A0K8 whole entry): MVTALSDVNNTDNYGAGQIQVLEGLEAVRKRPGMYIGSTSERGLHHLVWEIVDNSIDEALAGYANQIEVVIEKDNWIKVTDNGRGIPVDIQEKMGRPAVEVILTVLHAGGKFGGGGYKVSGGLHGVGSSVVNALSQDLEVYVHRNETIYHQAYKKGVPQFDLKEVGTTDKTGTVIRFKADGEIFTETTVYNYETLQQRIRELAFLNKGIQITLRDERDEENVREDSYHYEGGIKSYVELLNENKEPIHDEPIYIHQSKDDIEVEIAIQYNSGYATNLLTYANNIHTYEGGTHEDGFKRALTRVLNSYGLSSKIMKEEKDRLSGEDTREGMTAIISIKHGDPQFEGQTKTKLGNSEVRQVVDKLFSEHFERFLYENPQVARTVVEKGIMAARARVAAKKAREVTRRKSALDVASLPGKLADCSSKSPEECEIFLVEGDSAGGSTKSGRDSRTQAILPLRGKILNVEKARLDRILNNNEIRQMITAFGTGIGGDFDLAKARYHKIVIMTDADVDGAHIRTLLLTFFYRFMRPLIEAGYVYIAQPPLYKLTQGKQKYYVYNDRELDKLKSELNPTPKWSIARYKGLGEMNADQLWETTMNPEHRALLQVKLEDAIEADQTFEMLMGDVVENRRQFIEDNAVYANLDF
Sequence of DNA gyrase (Staphylococcus aureus, UniProt P0A0K8+P20831) (P20831 whole entry): as the sequence (P20831 whole entry partner) above

Structure (SMILES)	inhibition of growth at 50 µM (Staphylococcus aureus [1]) [%]	MIC (Enterococcus faecalis [2]) [µM]	MIC (Escherichia coli [3]) [µg/mL]	inhibition of growth at 50 µM (Enterococcus faecalis [4]) [%]	IC50 (DNA gyrase [5]) [µM]	Kd (DNA gyrase [6]) [nM]	MIC (Escherichia coli [7]) [µg/mL]	MIC (Pseudomonas aeruginosa [8]) [µM]	inhibition of growth at 50 µM (Pseudomonas aeruginosa [9]) [%]	MIC (Escherichia coli [10]) [µg/mL]	MIC (Escherichia coli [11]) [µM]	MIC (Staphylococcus aureus [12]) [µM]	inhibition of growth at 50 µM (Escherichia coli [13]) [%]	Activity [14] [%]	Activity (Escherichia coli [15]) [%]	Activity [16] [%]	IC50 (DNA gyrase [17]) [µM]	IC50 [18] [µM]
COC(=O)CC(=O)Nc1nc2c(s1)C[C@@H](NC(=O)c1cc(Cl)c(Cl)[nH]1)CC2	< 50	> 125	32 (≈ 74.2 µM)	< 50	0.4	50	> 256	> 125	< 50	32 (≈ 74.2 µM)	> 125	> 125	< 50	101	97	63		
O=C(O)CCC(=O)Nc1nc2c(s1)C[C@@H](NC(=O)c1cc3ccccc3[nH]1)CC2	< 50	> 125	> 256	< 50	8.1		> 256	> 125	< 50	> 256	> 125	> 125	< 50	79	99	95		
O=C(O)CCC(=O)Nc1nc2c(s1)C[C@@H](NC(=O)c1cc(Cl)c(Cl)[nH]1)CC2	< 50	> 125	> 256	< 50	0.3		> 256	> 125	< 50	> 256	> 125	> 125	< 50	97	72		10	
COC(=O)CC(=O)Nc1nc2c(s1)C[C@H](NC(=O)c1cc(Br)c(Br)[nH]1)CC2	< 50	> 125	64 (≈ 123 µM)	< 50	9.1		> 256	> 125	< 50	256 (≈ 492 µM)	> 125	> 125	< 50	85	101	64		
NC(=O)CC(=O)Nc1nc2c(s1)C[C@@H](NC(=O)c1cc(Br)c(Br)[nH]1)CC2	< 50	> 125	128 (≈ 253 µM)	< 50	1.7		> 256	> 125	< 50	> 256	> 125	> 125	< 50	98	97	71		
Nc1nc2c(s1)C[C@@H](NC(=O)c1cc(Br)c(Br)[nH]1)CC2	< 50	> 125	64 (≈ 152 µM)	< 50	12	3000	> 256	> 125	< 50	64 (≈ 152 µM)	> 125	> 125	< 50	102	101	90		25
CC(=O)Nc1nc2c(s1)C[C@@H](NC(=O)c1cc(Br)c(Br)[nH]1)CC2	< 50	> 125		< 50	0.15			> 125	< 50		> 125	> 125	< 50	101	98		26	
Nc1nc2c(s1)C[C@@H](NC(=O)c1cc(Cl)c(Cl)[nH]1)CC2	< 50	> 125	64 (≈ 193 µM)	< 50	12		> 256	> 125	< 50	64 (≈ 193 µM)	> 125	> 125	< 50	98	97	85		
